The subject of assay [1] is limbal stem cells (LSCs). Kind of assay: Differentiation of expanded LSCs into corneal epithelium cells (p63alpha / keratin 12). It counts as cell-based, human. The note with it: transferred to conditions that enable differentiation. The text has this: Shown are views where the transition from the p63alpha-positive cell identity to the keratin-12 identity are occurring.
These characteristics can be observed by immunohistochemistry or FACS.

Assay [2] concerns human limbal stem cells (LSCs). Kind of assay: Human limbal stem cell population expansion: expansion factor. It counts as cell-based. Particulars: 10 micromolar, XVIVO15 medium, two passages, ratio of expanded to seeded cells. As to the method: Cells were cultured at 37° C. in 5% CO2.
For each compound, two sets of cultures were generated. A first set of cultures was fixed in 4% PFA for 20 minutes at room temperature after cells isolated from the cornea had attached to the cell culture dish (typically 24 h after cell plating). A second set of cultures was fixed in 4% PFA for 20 minutes at room temperature after being cultured for two passages. Cells were passaged when they reached 90-100% confluence.
To evaluate cell expansion ratios, nuclei were counted using a Zeiss LSM 880 confocal microscope. The expansion factor was then determined by calculating the ratio of the expanded population of cells to population of seeded cells.

Assay [3] addresses LATS1 (Homo sapiens (Human), UniProt O95835). Briefly: LATS1 biochemical assay (Table 1A, Compound Examples 1-290; method in the earlier part).
For assay [4], the target named is Human LATS1 kinase domain protein (Homo sapiens (Human), UniProt O95835). Kind of assay: LATS1 Biochemical Caliper Assay. The note with it: 400 micromolar ATP. As to the method:
Human LATS1 kinase domain protein was purchased from Carnabio (catalogue number 01-123), which harbors the catalytic domain of amino acids 589-1130, and was co-purified with human His-tagged MOBKL1A (NP_775-739). 5 microlitre of enzyme buffer, 100 nL of compounds and 5 microlitre of localising aid buffer were added into 384-well plates. The final assay reaction mix contains 100 mM HEPES, pH7.5, 0.1% BSA, 0.01% Triton X-100, 1 mM DTT, 10 mM MgCl2, 10 micromolar Sodium Orthovanadate, 10 micromolar Beta-Glycerophosphate, 400 micromolar ATP, 1% DMSO, 1.1 nM LATS1 enzyme (Carnabio, 01-123), 1 micromolar localising aid of FAM-[…]-COOH (SEQ ID NO: 24) (NanoSyn). The plates were incubated at 25° C. for 3 hours. 40 microlitre of stop buffer with 25 mM EDTA (NanoSyn) was added to each well to terminate the reaction. Localising aids and products were separated electrophoretically using the microfluidic-based Caliper Labchip 3000 Drug Discovery System (Caliper Life Sciences). Plates were read using blue laser excitation and green fluorescence detection and quantified by fluorescence intensity. […] According to this assay the LATS1 IC50 values in micromolar for the following compounds are: […]

In assay [5] the test system is phospho-YAP (ser127) in human CECs. Briefly: YAP phosphorylation by western blot in CECs. It counts as cell-based. Particulars: 10 micromolar, 1 hour. As to the method:
Cells obtained as described in Example C1 were detached from the culture dish with 1 mg/ml collagenase for 15 minutes at 37° C., cell suspensions were rinsed by centrifugation and plated in corneal endothelial cell culture medium (human endothelial SF medium (Invitrogen) with human serum) in 6-well plates (Corning) and cultured for 2 to 4 days. The medium was then replaced by fresh corneal endothelial cell culture medium (human endothelial SF medium (Invitrogen) with human serum) supplemented with LATS inhibitor, compound example no. […] Cells were cultured under these conditions for 1 hour at 37° C. in 5% CO2.
Cell pellets were obtained by trypsin dissociation and centrifugation and washed with PBS. The pellets were lysed with […] of RIPA lysis buffer containing protease inhibitor cocktail (Life Technologies) for 30 minutes, with vortexing every 10 minutes. The cell debris were then pelleted at 4° C. for 15 minutes at 14k rpm and the protein lysate was collected. Protein concentration was quantified using a micro BCA kit (Pierce). Fifteen (15) micrograms of total protein was loaded in each well of 4-20% TGX gels (BioRad) and Western blotting was performed according to the manufacturer's instructions. […] Membranes were stained with HRP-conjugated secondary antibodies, rinsed and imaged using a ChemiDoc system (Biorad) according to the manufacturer's instructions.
(A western blot detects proteins with antibodies after separation by electrophoresis.)

In assay [6] the test system is human limbal stem cells (LSCs). Briefly: Human limbal stem cell population expansion, immunohistochemical observation of p63alpha. It counts as cell-based. The note with it: for LSC colony formation and p63alpha expression: 10 micromolar, 6 days without passaging. As to the method: Cells obtained as described in Example B1 were plated in 24-well plates (Corning) in limbal epithelium cell culture medium (DMEM F12 supplemented with 10% human serum and 1.3 mM calcium chloride) supplemented with LATS inhibitor compound example no. […] Cells were first cultured at 37° C. in 5% CO2 for 6 days after isolation without passaging (FIGS. 2A, 2B and 2C).
To evaluate the ability of the compounds to enable LSC expansion after two passages, LSCs were passaged and cultured for two weeks in the presence of compound example 49 to enable expansion (FIG. 2D). Limbal stem cells (LSCs) were passaged by treating cultures with Accutase for 10 minutes at 37° C., rinsing the cell suspension by centrifugation and plating cells in fresh LSC culture medium supplemented with LATS inhibitor compound example 49.
In order to observe that the expanded cell population expressed p63alpha, this was measured by immunohistochemistry as follows. Cell cultures were fixed with 4% PFA for 20 minutes, permeabilized and blocked in a blocking solution of 0.3% Triton X-100 (Sigma-Aldrich) and 3% donkey serum in PBS for 30 minutes. Cells were then labeled with primary antibody in the blocking solution for 12 hours at 4° C. Primary antibody used was p63alpha from Cell Signalling. Samples were washed in PBS three times and donkey-raised secondary antibody Alexa Fluor 488 (Molecular Probes) at 1:500 dilution were applied for 30 minutes at room temperature. Cells were counter-stained with a human nuclear antigen antibody (Millipore) at a 1:500 dilution in order to label all cells in the culture and confirm their human identity. […] Fluorescence was observed using a Zeiss LSM 880 confocal microscope.

Assay [7] deals with YAP phosphorylation in limbal stem cells (LSCs). Kind of assay: YAP dephosphorylation in LSCs by Western blot. It counts as cell-based, human. The note with it: within one hour of treatment.

As usually defined, the IC50 is the concentration needed to halve the response being measured. Read a high IC50 as weaker potency in that assay.

Sequence of Human LATS1 kinase domain protein (O95835 whole entry, looked up, the tested form may be a part): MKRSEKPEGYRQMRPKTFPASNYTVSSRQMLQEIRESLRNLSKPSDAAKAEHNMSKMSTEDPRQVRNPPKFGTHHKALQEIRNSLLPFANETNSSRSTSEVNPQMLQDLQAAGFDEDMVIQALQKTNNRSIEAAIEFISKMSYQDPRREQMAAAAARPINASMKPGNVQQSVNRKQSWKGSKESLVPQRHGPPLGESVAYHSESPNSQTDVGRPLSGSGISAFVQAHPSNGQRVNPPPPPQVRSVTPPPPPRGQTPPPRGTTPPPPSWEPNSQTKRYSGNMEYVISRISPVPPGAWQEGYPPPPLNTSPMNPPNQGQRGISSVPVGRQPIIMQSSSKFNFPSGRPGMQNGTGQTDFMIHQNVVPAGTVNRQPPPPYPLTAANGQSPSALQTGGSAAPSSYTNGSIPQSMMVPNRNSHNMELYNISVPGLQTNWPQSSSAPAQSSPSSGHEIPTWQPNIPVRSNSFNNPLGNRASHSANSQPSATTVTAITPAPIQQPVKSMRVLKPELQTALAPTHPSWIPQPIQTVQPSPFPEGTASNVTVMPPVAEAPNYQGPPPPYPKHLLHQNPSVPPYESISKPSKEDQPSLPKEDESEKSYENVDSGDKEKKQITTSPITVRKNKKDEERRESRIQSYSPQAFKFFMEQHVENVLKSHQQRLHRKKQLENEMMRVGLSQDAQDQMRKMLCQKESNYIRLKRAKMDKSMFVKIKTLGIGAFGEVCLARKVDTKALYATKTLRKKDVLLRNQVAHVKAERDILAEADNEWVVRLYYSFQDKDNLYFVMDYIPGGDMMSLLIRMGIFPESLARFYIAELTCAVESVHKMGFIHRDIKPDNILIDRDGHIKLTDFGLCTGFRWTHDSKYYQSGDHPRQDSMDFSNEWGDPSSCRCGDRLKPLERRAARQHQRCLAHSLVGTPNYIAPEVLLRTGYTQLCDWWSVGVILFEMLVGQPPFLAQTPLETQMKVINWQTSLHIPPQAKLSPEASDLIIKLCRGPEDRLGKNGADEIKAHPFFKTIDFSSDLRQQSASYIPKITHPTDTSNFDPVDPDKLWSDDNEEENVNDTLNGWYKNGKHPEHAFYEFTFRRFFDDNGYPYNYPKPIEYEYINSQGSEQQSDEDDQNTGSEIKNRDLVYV
Sequence of Human LATS1 kinase domain protein (Q7L9L4 whole entry partner, looked up, the tested form may be a part): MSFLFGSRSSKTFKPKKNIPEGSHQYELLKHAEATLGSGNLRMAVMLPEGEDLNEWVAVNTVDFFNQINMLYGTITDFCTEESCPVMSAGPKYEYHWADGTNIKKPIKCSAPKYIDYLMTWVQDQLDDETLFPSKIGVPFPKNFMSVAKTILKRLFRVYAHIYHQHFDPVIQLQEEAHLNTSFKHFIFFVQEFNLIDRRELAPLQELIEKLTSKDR
Sequence of LATS1 (O95835 whole entry, looked up, the tested form may be a part): as the sequence (O95835 whole entry, looked up, the tested form may be a part) above
Sequence of LATS1 (Q7L9L4 whole entry partner, looked up, the tested form may be a part): as the sequence (Q7L9L4 whole entry partner, looked up, the tested form may be a part) above

Regarding `CC(C)(C)Nc1cc(-c2ccncc2)nc2cnccc12` [Example 261, N-(tert-butyl)-2-(pyridin-4-yl)-1,7-naphthyridin-4-amine], the “differentiation of expanded LSCs into corneal epithelium cells (keratin 12)” value in assay [1] is “can differentiate into corneal epithelium cells”. In assay [2], the Expansion factor amounted to 1717. Moreover, the 50% inhibitory concentration (IC50) in assay [3] was 1 nM.
Consider `c1cc(-c2nc(NC3CCCC3)c3ccncc3n2)ccn1` [Example 65, N-cyclopentyl-2-(pyridin-4-yl)pyrido[3,4-d]pyrimidin-4-amine], for which the figures for the IC50 in assay [4] and in assay [3] were 22 nM and 2 nM, respectively. Besides, the Expansion factor in assay [2] was 1048.
As for `CCCNc1nc(-c2ccncc2)nc2cnccc12` [Example 14, N-propyl-2-(pyridin-4-yl)pyrido[3,4-d]pyrimidin-4-amine], the 50% inhibitory concentration (IC50) in assay [4] turned out to be 34 nM; in assay [3] it was 2 nM. For the same compound, the Expansion factor in assay [2] is listed as 1423.
As to `Cc1n[nH]cc1-c1nc(NC2(C)CC2)c2ccncc2n1` [Example 133, 2-(3-methyl-1H-pyrazol-4-yl)-N-(1-methylcyclopropyl)pyrido[3,4-d]pyrimidin-4-amine], the “YAP phosphorylation levels in human CECs (western blot)” value in assay [5] is on record as “reduction in YAP phosphorylation levels in human CECs”. In addition, the 50% inhibitory concentration (IC50) in assay [4] was 4 nM; in assay [3] it was 2 nM. For the same compound, the “LSC colony formation and p63alpha expression” value in assay [6] was “the cells formed colonies and expressed p63alpha”. In addition, the Expansion factor in assay [2] was found to be 1205. The “YAP dephosphorylation in LSCs” value in assay [7] is “induce YAP dephosphorylation”.
For `CC(C)(O)CC(C)(C)Nc1nc(-c2ccncc2)nc2cnccc12` [Example 49, 2,4-dimethyl-4-{[2-(pyridin-4-yl)pyrido[3,4-d]pyrimidin-4-yl]amino}pentan-2-ol], in assay [5], the “YAP phosphorylation levels in human CECs (western blot)” value is listed as “reduction in YAP phosphorylation levels in human CECs”. Also, the concentration for half-maximal inhibition (IC50) stood at 12 nM in assay [4] and 1 nM in assay [3]. Besides, the “LSC colony formation and p63alpha expression” value in assay [6] is “the cells formed colonies and expressed p63alpha”. In addition, the “LSC population expansion after passaging” value in assay [6] (passaged and cultured two weeks) was “enabled cell population expansion and the formation of confluent cultures expressing p63alpha”. The “differentiation of expanded LSCs into corneal epithelium cells (keratin 12)” value in assay [1] is reported as “can differentiate into corneal epithelium cells”. For the same compound, the Expansion factor in assay [2] was 2029. Moreover, the “YAP dephosphorylation in LSCs” value in assay [7] was “induce YAP dephosphorylation”.

The values are drawn from US11458138B2 (Novartis AG, priority 2017, dated 2022).
